Source: patent US6160008A, “Pharmaceutical compositions comprising S-alkylisothiouronium derivatives” (priority 1996, dated 2000)
“Also recorded” adds a separate entry of the source.

Tests used:
[1] = system: rats exposed to an oxygen pressure of 6 atm; assay: Toxic effect of oxygen at a pressure of 6 atm in rats (Tables 16-18); assay type: in vivo, white rats; settings: 20 mg/kg i.p.
Experimental: Experiments on the toxic effect of oxygen at a pressure of 6 atm were carried out similarly in a hyperbaric chamber C-203 (chamber volume 0.45 m^3), on white rats, during 50 minutes. The preparation was injected intraperitoneally at a dose of 20 mg/kg. In the controls, 2 ml/kg of water for injections was injected intraperitoneally. After decompression the rats were decapitated and the glucose content, urea content, ureal nitrogen and total hemoglobine content were determined in the blood serum, as well as the index <<lung mass in gr./body mass in gr. X 100>> (i.e. lung coefficient).

arterial blood pressure = assay: Influence of single intravenous injection on arterial blood pressure, heart rate and respiratory rate in anesthetized cats (Table 1, FIGS. 1-10); assay type: in vivo; settings: 5 mg/kg i.v.
Experimental: Experiments were performed on 52 anesthetized (intraperitoneally with 45 mg/kg of sodium pentobarbital) cats of both genders with body mass of 2.8-4.2 kg. Arterial pressure was measured by a mercury pressure gauge; measurements were also performed by ECG. Simultaneously, the respiratory frequency was registered. The hypertensive effect was determined as percent increase relative to the initial level of systolic arterial pressure (SAP). The duration of observation was 1-3 hours; the heart rate (HR) was calculated on the basis of ECG.

[2] = Pathomorphological examination of internal organs; assay type: in vivo, mice, dogs; settings: mean lethal and sublethal doses
From the text: The disturbance to blood circulation has a reversible character and as a rule, it normalized within 7-10 days after the preparation had no longer any effect.

[3] = system: mice exposed to an oxygen pressure of 3 atm; assay: Survival under oxygen pressure of 3 atm, mice (Table 15); assay type: in vivo, F1 (CBAx57B1); settings: for Number of survived animals: mice, 3 atm, 5 hours
Experimental: Animals were exposed to oxygen under increased pressure in a hyperbaric chamber <<Mana-2≤≤ for treatment of infants above 1 year, which was adjusted for the experiments on animals. The hyperbaric chamber design permitted to create excessive pressure up to 3 atm and to observe animal behavior from outside.
The experiments were performed on males of F1 (CBAx57B1) mice line and on males of Wistar rat line. Animals were placed in the hyperbaric chamber in plastic boxes and the atmospheric air was replaced by oxygen. The period of compression-decompression was 10 minutes. The exposure of the animals to an oxygen pressure of 3 atm during a period of 2 hours caused only some increase in their motion activity. Further staying of rats and mice in those conditions led to a decrease in the motion activity, to asphyxia with short periods of excitement and cramps. The death of some animals was registered after 2.5-3 hours, 50% after 4 hours, and 75% of mice and 100% of rats were dead after 5 hours.
When the influence of Difetur and Etyron was studied, the animals were exposed to an oxygen pressure of 3 atm during 5 hours if not otherwise specified. Preparations were injected 5-10 minutes before the session.

[4] = system: acute arterial hypotension, caused by prazosin; assay: Acute arterial hypotension caused by prazosin (Table 3); assay type: in vivo, cats; settings: for AP / HF / Respiratory contraction frequency: 5 mg/kg i.v. after prazosin 1 mg/kg
Experimental: It was of interest to study the influence of S-ethylisothiouronium diethylphosphate the in case of hypotension caused by the injection of a known α1-adreno blocker, namely prazosin. Prazosin was injected singly intravenously at a dose of 1 mg/kg.

[5] = listed as S-ethylisothiuronium diethylphosphate

CCSC(=N)N [S-ethylisothiouronium diethylphosphate]
Asphyxia, animal number ([1]; 36 rats): 0 | Generalized cramps, % of animals ([1]; 36 rats): 2.8% | Generalized cramps, animal number ([1]; 36 rats): 1 | Lateral position, animal number ([1]; 36 rats): 0 | Number of perished rats ([1]; 36 rats): 0 | Lung coefficient (lung mass in gr./body mass in gr. X 100) ([1]; Average ± SD, 16 animals): 0.474 ± 0.024 | Glucose (blood serum) ([1]; M ± m, n = 16): 5.765 ± 0.214 | Hemoglobin (blood serum) ([1]; M ± m, n = 16): 2.028 ± 0.048 | Urea (blood serum) ([1]; M ± m, n = 16): 4.643 ± 0.212 | Urea Nitrogen (blood serum) ([1]; M ± m, n = 16): 2.163 ± 0.099 | Protection at 6 atm in words ([1]; rats, listed as Difetur): improve blood serum biochemical indices; also recorded: efficiently protect lungs from the toxic effect of increased oxygen pressure; also recorded: did not practically effect the hemoglobin content but considerably improved other indices; also recorded: significantly reduced the <<lung mass in gr./body mass>> index; also recorded: completely prevented animals' death and reduced other visible consequences of the oxygen poisoning | Hypertensive activity, % (increase relative to the initial level of SAP) (arterial blood pressure): 40% | Hypertensive effect in words (arterial blood pressure): one of the most active compounds; also recorded: most active compound | RR (influence on respiratory rate) (arterial blood pressure): increases RR | Time to achieve maximum effect (arterial blood pressure): 2 min | Hypertensive activity (increase of SAP) (arterial blood pressure; given as "> SAP by", listed as S-ethylisothiuronium diethylphosphate): 40 mm Hg | Duration of effect (arterial blood pressure; [5]): 1 to 1.5 h | Hypertensive activity, % (increase relative to the initial level of SAP) (arterial blood pressure; [5]): 40% | Influence on HR (arterial blood pressure; [5]): Bradycardia | RR (influence on respiratory rate) (arterial blood pressure; [5]): Increases | Pathomorphological findings [2]: moderately pronounced signs of hemodynamic disturbance; also recorded: No prounced inflammatory, distrophic or necrobiotic changes of internal organs were observed; also recorded: In some cases, signs of compensatory-adaptation reactions of liver | Time to normalization of blood circulation disturbance [2]: 7 to 10 days | Number of survived animals ([3]; 5 mg/kg): 25% | Number of survived animals ([3]; 10 mg/kg): 65% | Number of survived animals ([3]; 20 mg/kg): 88% | Oxygen protective activity compared with Etyron ([3]; mouse, in vivo): exceed Etyron in oxygen protective activity | AP ([4]; 2 min): 135.0 ± 5.6 mm Hg | HF ([4]; 2 min): 152.4 ± 9.4 per min. | Respiratory contraction frequency ([4]; 2 min): 14.6 ± 3.9 min⁻¹ | AP ([4]; 15 min): 118.8 ± 10.3 mm Hg | HF ([4]; 15 min): 146.4 ± 5.6 per min. | Respiratory contraction frequency ([4]; 15 min): 12.4 ± 3.0 min⁻¹ | AP ([4]; 30 min): 116.3 ± 4.8 mm Hg | HF ([4]; 30 min): 144.0 ± 5.0 per min. | Respiratory contraction frequency ([4]; 30 min): 11.8 ± 2.3 min⁻¹ | AP ([4]; 60 min): 110.0 ± 7.4 mm Hg | HF ([4]; 60 min): 135.6 ± 7.0 per min. | Respiratory contraction frequency ([4]; 60 min): 11.0 ± 1.0 min⁻¹ | AP increase ([4]; 5 mg/kg i.v. after prazosin, 2nd minute): 29 mm Hg | AP above the level on the 5th minute after blocker ([4]; 5 mg/kg i.v. after prazosin, 15th minute): 11.8% | AP above the level on the 5th minute after blocker ([4]; 5 mg/kg i.v. after prazosin, 30th minute): 9.4% | Effect under α1-adreno blockade in words ([4]; after prazosin): Statistically significant changes of HR and respiratory movement frequency were not observed; also recorded: increases AP also on the background of α1-adreno blockers though with a lower duration than without them; also recorded: retain its activity in conditions of alpha-adrenergic blockade
